Assay results: PubChem BioAssay (NCI)
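Grown in 96-well plates, cells were treated for 48 hours with each compound at five concentrations. Insufficient inhibition: endpoint recorded as highest concentration tested. Here, GI50 denotes the concentration required for 50% inhibition of growth. The concentration for full growth arrest is given as TGI.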

Legend:
Assay in all cases: inhibition of tumour cell growth, NCI panel, 48 h
[1] = system: CAKI-1 renal
[2] = system: HL-60(TB) leukemia
[3] = system: IGROV1 ovarian
[4] = system: MDA-MB-435
[5] = system: NCI-H23 lung
[6] = system: NCI-H522 lung
[7] = system: OVCAR-8 ovarian
[8] = system: SK-MEL-28 melanoma
[9] = system: SN12C renal
[10] = system: SNB-19 CNS

| SMILES | TGI [1] [µM] | TGI [2] [µM] | TGI [3] [µM] | TGI [4] [µM] | TGI [5] [µM] | TGI [6] [µM] | TGI [7] [µM] | TGI [8] [µM] | TGI [9] [µM] | TGI [10] [µM] | GI50 [1] [nM] | GI50 [2] [nM] | GI50 [3] [µM] | GI50 [4] [nM] | GI50 [5] [µM] | GI50 [6] [nM] | GI50 [7] [µM] | GI50 [8] [µM] | GI50 [9] [µM] | GI50 [10] [µM] |
| --- | --- | --- | --- | --- | --- | --- | --- | --- | --- | --- | --- | --- | --- | --- | --- | --- | --- | --- | --- | --- |
| CCCCCC/C=C\CCCCCCCCCc1cccc(OC)c1O | > 100 | > 100 | > 100 | > 100 | > 100 | > 100 | > 100 | > 100 | > 100 | > 100 | – | – | – | – | – | – | – | – | – | – |
| CCOc1cc(CCNC)c2c(ccc3ccc(OC)c(O)c32)c1OC | 34 | > 100 | 27.7 | 27.5 | 27.1 | 21.7 | 29.4 | 37.8 | 36.7 | 30.1 | – | – | – | – | – | – | – | – | – | – |
| O=C(O)c1ccccc1C(=O)Nc1cc2c(cc1Br)-c1ccccc1C2=O | > 100 | > 100 | > 100 | > 100 | > 100 | > 100 | > 100 | > 100 | > 100 | > 100 | – | – | – | – | – | – | – | – | – | – |
| COC(=O)C1OC(SCCN)C(O)C(O)C1O (stereo unspecified) | > 100 | > 100 | > 100 | > 100 | > 100 | > 100 | > 100 | > 100 | > 100 | > 100 | – | – | – | – | – | – | – | – | – | – |
| Cn1c(=S)c2[nH]c(SCc3cccnc3)nc2n(C)c1=O | > 100 | > 100 | > 100 | > 100 | > 100 | > 100 | > 100 | > 100 | > 100 | > 100 | – | – | – | – | – | – | – | – | – | – |
| O=C1Nc2cc(-c3ccc(O)cc3)ccc2/C1=C/c1ccc[nH]1 | 3.59 | – | 7.22 | > 100 | 2.81 | > 20.1 | > 100 | > 100 | > 100 | > 100 | 43.5 | 228 | 0.327 | 70.8 | 0.0859 | 258 | 0.524 | 0.402 | 0.609 | 1.06 |
| Cn1c(=O)c2[nH]c(CCS)nc2n(C)c1=O | > 100 | > 100 | > 100 | > 100 | > 100 | > 100 | > 100 | > 100 | > 100 | > 100 | – | – | – | – | – | – | – | – | – | – |
| COc1ccccc1C(=O)Nc1ccc(Cl)c(C(=O)OC(C)C)c1 | > 100 | > 65.2 | > 100 | > 100 | 28.1 | > 81.4 | > 100 | > 94.5 | > 100 | > 100 | – | – | – | – | – | – | – | – | – | – |
| CCN(CC)CCOc1ccccc1-n1c(C)ccc1-c1ccccc1 | 28 | 40.6 | 31.8 | 29.9 | 29.9 | 28.3 | 33.4 | 29.7 | 30.5 | 31.9 | 13600 | 20500 | 14.8 | 14400 | 14.2 | 11600 | 16.7 | 15.7 | 15.4 | 15.7 |
| COc1ccc(-c2cncn2-c2ccc(-c3nc4cc(OC)c(OC)c(OC)c4s3)cc2)cc1N | > 100 | 9.55 | > 100 | > 100 | > 100 | 17.5 | > 100 | > 100 | > 100 | > 100 | 4820 | 2200 | 4.9 | 3130 | 4.76 | 3370 | 6.19 | 13.7 | 9.44 | > 100 |
| N#CC1=C(N)Oc2c(ccc3cccnc23)C1c1ccccc1 (stereo unspecified) | > 100 | 2.07 | > 100 | 0.661 | > 28.5 | 12.7 | > 100 | > 75.5 | > 100 | > 74.1 | – | – | – | 193 | – | 299 | – | – | – | – |
| COc1ccc(C#CC2=C(Br)C(=O)OC2)cc1 | 6.61 | > 50 | > 50 | 27.3 | 25.3 | > 50 | 39 | 23.3 | 16.9 | > 50 | 1760 | 5320 | 26.8 | 9940 | 10.6 | 25800 | 9.47 | 5.54 | 8.83 | 12 |
| CSc1ccc(NC(=O)CCl)cc1 | > 10 | > 10 | > 10 | > 10 | > 10 | 6.82 | > 10 | > 10 | > 10 | > 10 | – | – | – | – | – | – | – | – | – | – |
| COc1ncc(-c2ccc3ncnc(Nc4cccc(Cl)c4)c3c2)cc1NS(C)(=O)=O | 10.8 | 16.4 | 0.815 | 17.3 | 8.69 | 18.4 | > 100 | 41.3 | 31.8 | 31.3 | 457 | 848 | 0.189 | 2770 | 1.62 | 2140 | 3.75 | 1.81 | 1.76 | 3.19 |
| COc1ccc(OC)c(-c2nc3sc(C)cn3c2/C=C2\C(=O)N(C)c3ccccc32)c1 | 65.4 | 31.6 | 66.5 | 18.6 | 59.3 | 59.4 | > 100 | 43.6 | 50.7 | 94.7 | 23800 | 11500 | 22 | 4040 | 24.4 | 22000 | 28.3 | 19.8 | 20.6 | 26.4 |
| CC(=O)OCCC/C(=C/c1cc2ccccc2c2ccccc12)[N+](=O)[O-] | 2.51 | 4.57 | 2.81 | 3.16 | 3.27 | 0.981 | 3.21 | 2.99 | 3.75 | 3.22 | 1210 | 1430 | 1.06 | 1460 | 1.57 | 252 | 1.61 | 1.64 | 1.75 | 1.66 |
